The text below walks through data of PubChem BioAssay (NCI).

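Briefly, cells in 96-well plates were exposed to five compound concentrations for 48 h, and endpoints were estimated by linear interpolation. GI50 is the concentration that inhibits growth by half. TGI marks complete inhibition of growth.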

Test systems include LOX IMVI melanoma; HCC-2998 colon; MALME-3M melanoma; HS 578T breast; EKVX NSCLC; COLO 205 colon; NCI-H460 lung; NCI-H522 lung; U251 CNS; OVCAR-3 ovarian.
Holding throughout (test): NCI-60 cell line screen, 48 h

On to `CCCCCCCC(=O)SCC/C=C/[C@@H]1CC(=O)NCc2cccc(n2)CN(Cc2ccc(Cl)cc2)CC(=O)N[C@@H](C(C)C)C(=O)O1`, for which the GI50 in the assay on LOX IMVI melanoma was 5.33 µM; in the assay on HCC-2998 colon, 13.8 µM; with MALME-3M melanoma it was 3.12 µM; in the assay with HS 578T breast, 6.05 µM; with EKVX NSCLC, 17.8 µM; in the assay on COLO 205 colon, 17.6 µM. Further, the GI50 was 5.45 µM in the assay on NCI-H460 lung, 6.82 µM in the assay with NCI-H522 lung, 12.6 µM in the assay on U251 CNS and 13.1 µM in the assay on OVCAR-3 ovarian. For the same compound, the TGI is 19.6 µM with LOX IMVI melanoma; 43.7 µM with HCC-2998 colon; more than 100 µM in the assay with MALME-3M melanoma; 56.1 µM with HS 578T breast; more than 100 µM in the assay on EKVX NSCLC; 42.9 µM with COLO 205 colon. Besides, the TGI was more than 100 µM with NCI-H460 lung, 54.1 µM with NCI-H522 lung, 35.8 µM in the assay with U251 CNS and 49.4 µM in the assay on OVCAR-3 ovarian.

With `Cc1cc(CC(O)(C(F)(F)F)C(F)(F)F)cc(CC(O)(C(F)(F)F)C(F)(F)F)n1`, the TGI came out at 5.79 µM in the assay on LOX IMVI melanoma; 14.2 µM with HCC-2998 colon; 4.3 µM with MALME-3M melanoma; 8.23 µM in the assay with HS 578T breast; 10.8 µM with EKVX NSCLC; 3.33 µM in the assay on COLO 205 colon. Moreover, the TGI came out at 4.2 µM in the assay on NCI-H460 lung, 6.35 µM with NCI-H522 lung, 11.9 µM with U251 CNS and 2.76 µM in the assay with OVCAR-3 ovarian.

With `COc1cc(C2CC(c3ccc(C)cc3)=NN2C(C)=O)ccc1Oc1ccnc2cc(Cl)ccc12` (centres undefined), the GI50 was more than 100 µM in the assay on HCC-2998 colon; more than 100 µM with MALME-3M melanoma; 2.6 µM in the assay with HS 578T breast; more than 100 µM in the assay on EKVX NSCLC; more than 100 µM in the assay on COLO 205 colon; more than 100 µM with NCI-H522 lung. Besides, the figures for the GI50 in the assay with U251 CNS and in the assay with OVCAR-3 ovarian were 1.41 µM and more than 100 µM, respectively. The TGI with HCC-2998 colon, in the assay on MALME-3M melanoma, in the assay with HS 578T breast, in the assay on EKVX NSCLC, in the assay with COLO 205 colon and with NCI-H522 lung was more than 100 µM throughout. Also, the TGI with U251 CNS and in the assay on OVCAR-3 ovarian was more than 100 µM each time.

On to `Cc1cc(C)c2nc(Nc3nc(C)c(C)c(=O)[nH]3)nc(C)c2c1`, for which the GI50 in the assay with LOX IMVI melanoma is 1.92 µM; with HCC-2998 colon, 3.81 µM; with MALME-3M melanoma, 1.61 µM; in the assay on HS 578T breast it was 4.53 µM; with EKVX NSCLC, 2.58 µM; with COLO 205 colon, 2.51 µM. In addition, the GI50 with NCI-H460 lung was 2.99 µM; with NCI-H522 lung, 1.63 µM; with U251 CNS, 3.18 µM; in the assay on OVCAR-3 ovarian it was 3.59 µM. The TGI in the assay with LOX IMVI melanoma came out at 5.38 µM; with HCC-2998 colon, 19.6 µM; in the assay on MALME-3M melanoma it was 7.48 µM; with HS 578T breast it was 34.1 µM; with EKVX NSCLC, 10.9 µM; in the assay with COLO 205 colon it was 7.51 µM. Further, the TGI in the assay on NCI-H460 lung is 11.1 µM; in the assay on NCI-H522 lung, 6.33 µM; with U251 CNS, 12 µM; in the assay with OVCAR-3 ovarian it was 13.1 µM.

Consider `CC1CCC(O)/C=C/C(=O)OC(C)C(O)/C=C/C(=O)O1` (centres undefined), for which the TGI in the assay with LOX IMVI melanoma, in the assay on HCC-2998 colon, in the assay on MALME-3M melanoma, with HS 578T breast, with EKVX NSCLC and in the assay on COLO 205 colon was more than 100 µM throughout. Further, the TGI in the assay on NCI-H460 lung is more than 100 µM; in the assay with NCI-H522 lung, more than 58.6 µM; in the assay on U251 CNS, more than 100 µM; with OVCAR-3 ovarian it was more than 100 µM.

Take `O=C(O)/C=C/C(=O)Nc1cccc2c1-c1ccccc1C2=O`: the TGI with LOX IMVI melanoma is more than 100 µM; with HCC-2998 colon it was 71.8 µM; with MALME-3M melanoma it was more than 100 µM; with HS 578T breast, 47.5 µM; in the assay with EKVX NSCLC it was more than 100 µM; in the assay with COLO 205 colon, 36.1 µM. The TGI is more than 35.5 µM with NCI-H460 lung, 26.3 µM in the assay on NCI-H522 lung, more than 57.5 µM in the assay on U251 CNS and 5.78 µM with OVCAR-3 ovarian.

In the case of `COc1ccc(/C(C#N)=C/c2nc3c(N4CCOCC4)nc(Cl)nc3n2C)cc1OC`, the GI50 in the assay with LOX IMVI melanoma is less than 0.01 µM; in the assay with HCC-2998 colon, 0.0163 µM; in the assay on MALME-3M melanoma, less than 0.0152 µM; in the assay on HS 578T breast, less than 0.01 µM; in the assay on COLO 205 colon it was 0.0172 µM; in the assay with NCI-H460 lung, less than 0.01 µM. The GI50 with NCI-H522 lung, in the assay on U251 CNS and in the assay on OVCAR-3 ovarian was less than 0.01 µM in each case. The TGI in the assay on LOX IMVI melanoma worked out at 1.15 µM; in the assay on HCC-2998 colon, 1.22 µM; in the assay with MALME-3M melanoma it was 2.01 µM; with HS 578T breast, 2.68 µM; in the assay on EKVX NSCLC, 2.76 µM; in the assay with COLO 205 colon it was 0.0424 µM. Moreover, the TGI is 1.99 µM with NCI-H460 lung, 1.28 µM in the assay with NCI-H522 lung, 1.51 µM in the assay on U251 CNS and less than 0.01 µM in the assay with OVCAR-3 ovarian.

In the case of `COc1ccc(-n2cc(-c3ccc(Cl)cc3)[nH]c2=S)cc1Cl`, the GI50 in the assay on LOX IMVI melanoma was 94 µM; with HCC-2998 colon it was 57.4 µM; with MALME-3M melanoma, more than 100 µM; in the assay with HS 578T breast it was 23.8 µM; in the assay on EKVX NSCLC, 42.8 µM; in the assay with COLO 205 colon it was more than 100 µM. For the same compound, the GI50 in the assay with NCI-H460 lung was 50.5 µM; in the assay with NCI-H522 lung, 59.4 µM; with U251 CNS, 32.3 µM; in the assay on OVCAR-3 ovarian it was 31.8 µM. Further, the TGI with LOX IMVI melanoma was more than 100 µM; with HCC-2998 colon, more than 100 µM; in the assay on MALME-3M melanoma, more than 100 µM; in the assay with HS 578T breast, 56.6 µM; in the assay with EKVX NSCLC it was more than 100 µM; in the assay on COLO 205 colon, more than 100 µM. Moreover, the TGI in the assay with NCI-H460 lung, with NCI-H522 lung, in the assay with U251 CNS and with OVCAR-3 ovarian was more than 100 µM each time.

For the compound `CC(C)n1c2c(c3ccccc3c1=O)C(=O)c1ccccc1-2`, the TGI in the assay with LOX IMVI melanoma, in the assay with HCC-2998 colon, in the assay on MALME-3M melanoma, in the assay with HS 578T breast, with EKVX NSCLC and in the assay with COLO 205 colon was more than 100 µM each time. In addition, the TGI in the assay on NCI-H522 lung, in the assay on U251 CNS and with OVCAR-3 ovarian was more than 100 µM each time.

As to `COC1=CC(=O)c2c(O)c3c(c(O)c2C1=O)CC(C)(O)OC3` (centres undefined), the TGI worked out at 12.9 µM with LOX IMVI melanoma; 13.9 µM in the assay on HCC-2998 colon; 2.1 µM with MALME-3M melanoma; 35.9 µM in the assay on HS 578T breast; 18.7 µM in the assay with EKVX NSCLC; 4.76 µM in the assay with COLO 205 colon. Moreover, the TGI turned out to be 6.48 µM with NCI-H460 lung, 7.24 µM in the assay on NCI-H522 lung, 10.5 µM in the assay on U251 CNS and 7.08 µM in the assay on OVCAR-3 ovarian.
